Results published in paper PMC9998255 (Archives of Pharmacal Research, 2023).

What was measured:
[1] = in vivo; cited from earlier work
[2] = 0.5 h, pH 7.4
[3] = test system: NLRP3 inflammasome; assay type: cell-based, C57BL/6 mice
[4] = test system: TAA-induced liver fibrosis; set-up: species or system BALB/c mice; conditions: mouse, in vivo
[5] = 0.5 h, pH 7.4; remark: listed apart in the source

## CC(=O)OC[C@H]1O[C@@H]([S-])[C@H](OC(C)=O)[C@@H](OC(C)=O)[C@@H]1OC(C)=O.CCP(CC)CC.[Au+] [auranofin]
[1]
  fraction absorbed through the gastrointestinal tract: 15–25%
[2]
  percentage remaining after incubation with human liver microsomes: 6.9%
[3]
  effect on ATP-induced IL-1β secretion: inhibited ATP-induced IL-1β secretion
[4]
  efficacy on liver fibrosis compared with 10 mg/kg aurocyanide: similar
[5]
  percentage remaining after incubation with mouse liver microsomes: 1.5%
